US8163768B2, “1,4-dihydropyridine-fused heterocycles, process for preparing the same, use and compositions containing them” (Aventis Pharma S.A.., priority 2005, dated 2012)

Target: T1, Aurora2 (Aurora-A) (Homo sapiens, UniProt O14965)
T1 construct: Aurora-A: the full length recombinant protein including an N-terminal poly-histidine tail has been expressed in E. coli; poly-histidine (N); made in house; host or cells: E. coli
T1 sequence (O14965 1-403): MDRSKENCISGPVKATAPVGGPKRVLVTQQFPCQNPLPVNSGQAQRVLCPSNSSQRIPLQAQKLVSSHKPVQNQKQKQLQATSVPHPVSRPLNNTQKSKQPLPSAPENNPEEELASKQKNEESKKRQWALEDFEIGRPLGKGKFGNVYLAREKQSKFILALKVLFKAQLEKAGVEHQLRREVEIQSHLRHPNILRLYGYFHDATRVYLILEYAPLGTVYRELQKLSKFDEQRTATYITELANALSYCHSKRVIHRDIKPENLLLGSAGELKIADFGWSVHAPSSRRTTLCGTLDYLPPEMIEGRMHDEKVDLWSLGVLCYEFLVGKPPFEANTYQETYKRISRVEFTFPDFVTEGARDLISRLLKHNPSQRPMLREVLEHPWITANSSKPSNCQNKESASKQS
Experiment: Aurora 2 (Aurora A) kinase radioactivity scintillation assay using nickel chelate Flash plates
Type: biochemical
Details: 10 nM Aurora-A, 500 nM NuMA substrate, 1 μM ATP with [33P] ATP, 10 mM MgCl2, 30 minutes, 37° C.
Protocol: Aurora 1 and 2 (Respectively. Aurora B and A)
The inhibitory effect of compounds with respect to the Aurora 1 and 2 kinases is determined with a radioactivity scintillation assay using nickel chelate.
The kinase activity of Aurora is measured by the phosphorylation of NuMA-histidine substrate in the presence of radiolabelled ATP ([^33P] ATP) using 96 well Flash plates where the nickel-chelate is linked to the surface of the microplate. The amount of ^33P incorporated to the substrate NuMA is proportional to the aurora activity.
The Flash plates used are nickel-chelate 96 well plates (Perkin Elmer, model SMP107).
The products to be evaluated are incubated in a 100 μl reaction volume per well in the presence of 10 nM of Aurora-B or Aurora-A, 500 nM of NuMA substrate in the following buffer: 50 mM of NaCl, 5 mM MgCl2, (Aurora-B) or 10 mM MgCl2 (Aurora-A) and 1 mM of DTT at 37° C.
80 μL of enzyme/substrate incubation buffer is distributed in each well, followed by 10 μL of solution of compound to be measured with various concentrations. The reaction is started by adding 1 μM of ATP (final concentration) containing 0.2 μCi of [^33P] ATP (10 μL). After 30 minutes of incubation the reaction is stopped by removal of the reaction mixture and each well is washed twice with 300 μl of buffer Tris/HCl. The radioactivity is measured in each well using a Packard Top count scintillation counter instrument.
The enzymatic activity is expressed as counts per minute obtained in 30 minutes after subtraction of the background noise (reaction medium without enzyme). The measurement is expressed as percentage of inhibition of Aurora activity versus the control. To generate IC50 values, compounds of the invention are tested at different concentration and the percentage of inhibition are plotted as function of compound concentration, IC50s are calculated using the Xlfit 4 curve fitting software.

Row | Structure (SMILES) | IC50 [nM]
1 | O=C1CNCC2=C1C(c1cccc(C(=O)NCc3ccc(OC(F)(F)F)cc3)c1)c1c[nH]nc1N2 (centres unmarked) [Example 60, 3-(5-Oxo-2,4,6,7,8,9-hexahydro-pyrazolo[3,4b]-1,7-naphthyridin-4-yl)-N-(4-trifluoromethoxy-benzyl)-benzamide; compound with trifluoro-acetic acid] | 6500
2 | Cc1noc(C)c1C(=O)N1CC(=O)C2=C(C1)Nc1n[nH]cc1C2c1cccc(Oc2ccc(Cl)cc2)c1 (centres unmarked) [Example 53, 4-[3-(4-Chloro-phenoxy)-phenyl]-7-(3,5-dimethyl-isoxazole-4-carbonyl)-2,4,6,7,8,9-hexahydro-pyrazolo[3,4-b]-1,7-naphthyridin-5-one; compound with trifluoro-acetic acid] | 7370
3 | Cc1cc(C2C3=C(CNCC3=O)Nc3n[nH]cc32)ccc1O (centres unmarked) [Example 1, 4-(4-Hydroxy-3-methyl-phenyl)-2,4,6,7,8,9-hexahydro-pyrazolo[3,4-b]-1,7-naphthyridin-5-one; compound with trifluoro-acetic acid] | 7450
4 | O=C1CCCC2=C1C(c1ccc(-c3ccc(Cl)cc3)o1)c1c[nH]nc1N2 (centres unmarked) [Example 27, 4-[5-(4-Chloro-phenyl)-furan-2-yl]-2,4,6,7,8,9-hexahydro-pyrazolo[3,4-b]quinolin-5-one; compound with trifluoro-acetic acid] | 4920
5 | O=C1CNCC2=C1C(c1ccc(-c3ccc(Cl)cc3)o1)c1c[nH]nc1N2 (centres unmarked) [Example 16, 4-[5-(4-Chloro-phenyl)-furan-2-yl]-2,4,6,7,8,9-hexahydro-pyrazolo[3,4-b]-1,7-naphthyridin-5-one; compound with trifluoro-acetic acid] | 1080
6 | O=C1CCCC2=C1C(c1cccc(Oc3ccc(Cl)cc3)c1)c1c[nH]nc1N2 (centres unmarked) [Example 22, 4-[3-(4-Chloro-phenoxy)-phenyl]-2,4,6,7,8,9-hexahydro-pyrazolo[3,4-b]quinolin-5-one; compound with trifluoro-acetic acid] | 2320
7 | O=C1CCCC2=C1C(c1ccc(-c3cccc(Cl)c3)o1)c1c[nH]nc1N2 (centres unmarked) [Example 23] | 2410
8 | O=C1CNCC2=C1C(c1cccc(C(=O)Nc3ccc(OC(F)(F)F)cc3)c1)c1c[nH]nc1N2 (centres unmarked) [Example 63, 3-(5-Oxo-2,4,6,7,8,9-hexahydro-pyrazolo[3,4b]-1,7-naphthyridin-4-yl)-N-(4-trifluoromethoxy-phenyl)-benzamide; compound with trifluoro-acetic acid] | 3300
9 | Cc1nnsc1C(=O)N1CC(=O)C2=C(C1)Nc1n[nH]cc1C2c1cccc(Oc2ccc(Cl)cc2)c1 (centres unmarked) [Example 55, 4-[3-(4-Chloro-phenoxy)-phenyl]-7-(4-methyl-[1,2,3]thiadiazole-5-carbonyl)-2,4,6,7,8,9-hexahydro-pyrazolo[3,4-b]-1,7-naphthyridin-5-one; compound with trifluoro-acetic acid] | 7200
10 | O=C1CNCC2=C1C(c1cccc(C(=O)Nc3cccc(OC(F)(F)F)c3)c1)c1c[nH]nc1N2 (centres unmarked) [Example 64, 3-(5-Oxo-2,4,6,7,8,9-hexahydro-pyrazolo[3,4b]-1,7-naphthyridin-4-yl)-N-(3-trifluoromethoxy-phenyl)-benzamide; compound with trifluoro-acetic acid] | 4100
11 | O=C1CNCC2=C1C(c1ccc(-c3ccccc3C(F)(F)F)o1)c1c[nH]nc1N2 (centres unmarked) [Example 17, 4-[5-(2-trifluoromethyl-phenyl)-furan-2-yl]-2,4,6,7,8,9-hexahydro-pyrazolo[3,4-b]-1,7-naphthyridin-5-one; compound with trifluoro-acetic acid] | 888
12 | O=C1CNCC2=C1C(c1ccc(-c3cccc(C(F)(F)F)c3)o1)c1c[nH]nc1N2 (centres unmarked) [Example 18, 4-[5-(3-trifluoromethyl-phenyl)-furan-2-yl]-2,4,6,7,8,9-hexahydro-pyrazolo[3,4-b]-1,7-naphthyridin-5-one; compound with trifluoro-acetic acid] | 2150
13 | Cc1ccc(Oc2cccc(C3C4=C(CNCC4=O)Nc4n[nH]cc43)c2)cc1 (centres unmarked) [Example 11, 4-(3-p-Tolyloxy-phenyl)-2,4,6,7,8,9-hexahydro-pyrazolo[3,4-b]-1,7-naphthyridin-5-one; compound with trifluoro-acetic acid] | 1130
14 | O=C1CNCC2=C1C(c1cccc(NC(=O)c3ccc(Cl)cc3)c1)c1c[nH]nc1N2 (centres unmarked) [Example 65, 4-Chloro-N-[3-(5-Oxo-2,4,6,7,8,9-hexahydro-pyrazolo[3,4b]-1,7-naphthyridin-4-yl)-phenyl]-benzamide; compound with trifluoro-acetic acid] | 630
15 | O=C(Nc1ccc(Cl)cc1)Nc1cccc(C2C3=C(CNCC3=O)Nc3n[nH]cc32)c1 (centres unmarked) [Example 67, 1-(4-Chloro-phenyl)-3-[3-(5-Oxo-2,4,6,7,8,9-hexahydro-pyrazolo[3,4b]-1,7-naphthyridin-4-yl)-phenyl]-urea; compound with trifluoro-acetic acid] | 2000
16 | O=C1CCCC2=C1C(c1ccc(-c3ccccc3C(F)(F)F)o1)c1c[nH]nc1N2 (centres unmarked) [Example 26, 4-[5-(2-Trifluoromethyl-phenyl)-furan-2-yl]-2,4,6,7,8,9-hexahydro-pyrazolo[3,4-b]quinolin-5-one; compound with trifluoro-acetic acid] | 1030
17 | O=C1CN(C(=O)c2ccno2)CC2=C1C(c1cccc(Oc3ccc(Cl)cc3)c1)c1c[nH]nc1N2 (centres unmarked) [Example 54, 4-[3-(4-Chloro-phenoxy)-phenyl]-7-(isoxazole-5-carbonyl)-2,4,6,7,8,9-hexahydro-pyrazolo[3,4-b]-1,7-naphthyridin-5-one; compound with trifluoro-acetic acid] | 6100
18 | O=C1CCCC2=C1C(c1ccc(-c3cccc(C(F)(F)F)c3)o1)c1c[nH]nc1N2 (centres unmarked) [Example 25, 4-[5-(3-Trifluoromethyl-phenyl)-furan-2-yl]-2,4,6,7,8,9-hexahydro-pyrazolo[3,4-b]quinolin-5-one; compound with trifluoro-acetic acid] | 3070
19 | O=C1CCCC2=C1C(c1ccc(COc3ccc(Cl)c(Cl)c3)o1)c1c[nH]nc1N2 (centres unmarked) [Example 24, 4-[5-(3,4-Dichloro-phenoxymethyl)-furan-2-yl]-2,4,6,7,8,9-hexahydro-pyrazolo[3,4-b]quinolin-5-one; compound with trifluoro-acetic acid] | 291
20 | O=C1CNCC2=C1C(c1ccc(COc3ccc(Cl)c(Cl)c3)o1)c1c[nH]nc1N2 (centres unmarked) [Example 19, 4-[5-(3,4-Dichloro-phenoxymethyl)-furan-2-yl]-2,4,6,7,8,9-hexahydro-pyrazolo[3,4-b]-1,7-naphthyridin-5-one; compound with trifluoro-acetic acid] | 8390
21 | O=C1CN(CC(O)CN2CCOCC2)CC2=C1C(c1cccc(Oc3ccc(Cl)cc3)c1)c1c[nH]nc1N2 (centres unmarked) [Example 50, 4-[3-(4-Chloro-phenoxy)-phenyl]-7-(2-hydroxy-3-morpholin-4-yl-propyl)-2,4,6,7,8,9-hexahydro-pyrazolo[3,4-b]-1,7-naphthyridin-5-one; compound with trifluoro-acetic acid] | 227
22 | CC(C)(C)c1ccc(Oc2cccc(C3C4=C(CNCC4=O)Nc4n[nH]cc43)c2)cc1 (centres unmarked) [Example 8, 4-[3-(4-tert-Butyl-phenoxy)-phenyl]-2,4,6,7,8,9-hexahydro-pyrazolo[3,4-b]-1,7-naphthyridin-5-one; compound with trifluoro-acetic acid] | 696
23 | Cn1c2c(c(=O)n(C)c1=O)C(c1cccc(Oc3ccc(Cl)cc3)c1)c1c[nH]nc1N2 (centres unmarked) [Example 43, 4-[3-(4-Chloro-phenoxy)-phenyl]-6,8-dimethyl-2,4,8,9-tetrahydro-1,2,6,8,9-pentaaza-cyclopenta[b]naphthalene-5,7-dione; compound with trifluoro-acetic acid] | 9700
